Assay results from publication PMC3006138, “Fexinidazole – A New Oral Nitroimidazole Drug Candidate Entering Clinical Development for the Treatment of Sleeping Sickness” (PLoS Neglected Tropical Diseases, 2010).
Where “and” joins values, the source holds several entries; their conditions need not be identical. Equal values may be shown once. Read-outs that look alike come from different tables or passages of the source.

Experiments:
[1] = tested on: T. b. rhodesiense (STIB 900); assay: In vitro trypanocidal assay (Alamar Blue); type: cell-based, Trypanosoma brucei rhodesiense; conditions: Trypanosoma brucei, 72 h; read-out: IC50
Method: (§1) 10 µL of Alamar Blue was added for the final 3 h to determine viability. […] The IC50 values were calculated from the sigmoidal inhibition curves. For cytotoxicity, 4×10^4/mL L-6 rat skeletal myoblast cells were used, and incubations and assessments carried out as above.

L-6 rat myoblast cells = assay: Cytotoxicity assay; type: cell-based; conditions: 72 h, read-out: IC50
Method: as §1

[2] = Mouse single-dose plasma pharmacokinetics; type: in vivo; conditions: for AUC(0-t) / Cmax / AUC(0-inf) / Tmax / half-life / bioavailability: plasma; for bioavailability: fexinidazole 25 mg/kg po vs 1 mg/kg iv
Method: Blood samples were taken via into heparinised collection tubes and, following centrifugation, plasma was removed and stored frozen until required for assay.
All PK evaluations were carried out using validated high performance liquid chromatography (HPLC) and LC-MS assays, as per standard operating procedures of the laboratories involved.
One mouse PK and brain sampling study was carried out by BioDynamics Ltd., Rushden, UK, according to internal Standard Operating Procedures as a non-GLP regulated study, and animals were maintained as required by the “Code of practice for the housing and care of animals used in scientific procedures” (Home Office, London, 1989).
(§2) BioDynamics Study No: DND/01
(§3) Two groups of female mice were dosed as follows:
(§4) Number Treatment Dose (mg/kg) Route
(§5) All doses are expressed as free base
(§6) Intravenous doses were administered into a lateral tail vein using an appropriately sized syringe and 25G needle and the oral formulation by oral gavage using a polypropylene gavage tube. All doses were given as a single bolus dose at a constant dose volume of 10.0 mL/kg.
(§7) 1.6 Blood sample collection
(§8) At each sampling time point, three animals in each treatment group were deeply anaesthetised using isoflurane and blood samples (approximately 1 mL) taken into individual heparinised tubes by cardiac puncture, following which the animals were killed by cervical fracture. Samples were collected at the following times post-dose:
(§9) Following collection, the blood samples were centrifuged (approximately 10000 g, 2 min at 4 °C) and the plasma retained as one aliquot at approximately -70°C prior to analysis of test material concentrations at BioDynamics by LC-MS/MS.
(§10) 1.7 Collection of terminal brain samples
(§11) Following collection of the terminal blood sample the cranium of each mouse was carefully opened and the brain removed. Excess blood was washed from the brain with distilled water and any excess fluid blotted on absorbent paper. The brain was then snap frozen using liquid nitrogen and placed into a suitably labelled container and stored frozen at approximately -70°C pending analysis.
(§12) All of the plasma samples together with the brains from the 15 minute time point were analysed for concentrations of the test material and its sulfone and sulfoxide metabolites. In addition the brains from the 5 and 30 minute time points for the intravenously treated and the 30 and 60 minute time points for the orally treated animals were analysed for concentrations of Fexinidazole and its sulfone and sulfoxide metabolites using an LC-MS/MS method developed at BioDynamics.
(§13) All samples were treated as temperature sensitive. Blood samples were collected onto wet ice, followed by centrifugation at 4 °C. Plasma and brain samples were snap frozen on dry ice (plasma) or liquid nitrogen (brains) prior to long term storage at less than -70 °C pending analysis.
Summed transitions were used to enhance sensitivity. No instability of the test materials was noted during the course of analysis or on re-injection of the samples into the mass spectrometer under the […]
3. Pharmacokinetic analysis
The plasma concentration vs time curves obtained following intravenous and oral administration of the test compounds to female mice were analysed using WinNonLin (Version 4.1, Scientific Consulting
Inc. USA). The kinetic data were characterised by a non-compartmental analysis (NCA).
The following pharmacokinetic parameters were derived from the profiles: maximum peak plasma concentration (Cmax); the time of maximum observed concentration (Tmax); the terminal half life (T½), and area under the plasma concentration curve (AUC), 3.1.1 Area under the curve (AUC)
The AUC was determined using the linear/log trapezoidal method. A value of zero was used for any plasma concentrations recorded as below the limits of quantification (LLOQ). The AUCinf (observed) was calculated as the area under the curve from the time of dosing extrapolated to time infinity based on the observed concentrations. The AUClast was also determined. […]

[3] = Mouse brain concentrations; type: in vivo
Method: Following sacrifice, the cranium of mice was opened and the brain removed. Excess blood was washed from the brain with distilled water and any excess fluid blotted on absorbent paper. The brain was then snap frozen using liquid nitrogen and placed into a suitably labelled container and stored at approximately −70°C, pending analysis. Brains were homogenized and extracted samples were prepared appropriately for analysis via liquid chromatography-mass spectrometry (LC-MS).
as §2, §3, §4, §5, §6, §7, §8, §9, §10, §11, §12, §13

[4] = Mouse pharmacokinetics after 5-day oral dosing; conditions: male, NMRI, mouse, plasma, po, 200 mg/kg/day
Method: The study was conducted according to the study protocol [1].
gavage daily for 5 consecutive days at a dose of 200 mg/kg in a 5 % tween 80/ 0.5 %
Formulation Preparation and Concentration Check
were prepared according to the procedure already developed [2]; a sufficient volume of each
suspension was prepared in order to support the 5-day repeated oral administration. The
suspensions were stored at +4°C. The supportive stability data for the Fexinidazole
suspension after 7 days at +4°C was performed.
a specific, not validated, HPLC-UV method [2]. Three samples were analyzed for each
Sample Collection and Handling
About 0.05-0.07 mL of blood/sampling time were taken from the saphenous vein using
heparinized tubes (pre-cooled in an ice/water bath) and were centrifuged at 10000g for 3
minutes at 4°C. The separated plasma was stored at -80°C until analysis. Blood was taken at
validated LC-MS-MS methods.
Pharmacokinetic Calculations
Pharmacokinetic evaluation was carried out using a non-compartmental approach with the
aid of the Watson package (v. 6.4.0.04, Thermo Fisher Scientific, Waltham, MA, USA).
For the calculations, pre-dose concentrations of both compounds were set equal to zero.
After both compounds, on Day 5, Cmax and tmax were read from the raw plasma data as the
coordinates of the highest measured concentration. The area under plasma concentration vs.
time curve to finite time, AUC0-t(last), was determined by the linear trapezoidal rule up to the
last detectable concentration. The half-life of the terminal phase, t1/2,z, was determined by
linear regression analysis of the natural-log concentration vs. time curve, where t1/2,z =
ln(2)/slope of the regression line.
Descriptive statistics (mean ± SD, %CV) were reported for plasma concentrations and
pharmacokinetic parameters sorted by compound.
reported to three significant figures.
Plasma concentrations of sulphoxide and sulphone Fexinidazole metabolites were determined
by a LC-MS-MS method. The lower limit of the bioanalytical method was 5 ng/mL (run 1)
(v. 6.4.0.04, Thermo Fisher Scientific, Waltham, MA, USA).
Pharmacokinetic evaluations of the sulphone and sulphoxide metabolites were carried out
using non-compartmental approach with the aid of the Watson package (v. 6.4.0.04, Thermo
Fisher Scientific, Waltham, MA, USA).
After both doses, for the calculations, the pre-dose concentrations of the metabolites were set
Cmax and tmax were read from raw data as the coordinates of the highest measured

[5] = female, NMRI, mouse, fexinidazole 1 mg/kg iv
[6] = female, NMRI, mouse, fexinidazole 25 mg/kg po

SMILES: CSc1ccc(OCc2ncc([N+](=O)[O-])n2C)cc1 [Fexinidazole, 1-methyl-2-((p-(methylthio)phenoxy)methyl)-5-nitroimidazole]
- IC50 [1]: 0.48 µg/mL to 0.82 µg/mL and 1.71 µM to 2.93 µM
- IC50 (L-6 rat myoblast cells): > 90 µg/mL and > 322 µM
- clinical signs ([2]; 1 mg/kg iv or 25 mg/kg po): No clinical signs were observed
- AUC(0-t) ([2]; female, NMRI, mouse, iv, 1 mg/kg, fexinidazole 1 mg/kg iv, read-out: AUC0-24): 41 ng·h/mL
- Cmax ([2]; female, NMRI, mouse, iv, 1 mg/kg, fexinidazole 1 mg/kg iv, read-out: Cmax): 164 ng/mL
- Cmax ([2]; female, NMRI, mouse, po, 25 mg/kg, fexinidazole 25 mg/kg po, female NMRI mice, read-out: Cmax): 500 ng/mL
- AUC(0-t) ([2]; female, NMRI, mouse, po, 25 mg/kg, fexinidazole 25 mg/kg po, read-out: AUC0–24): 424 ng·h/mL
- AUC(0-inf) [2, 5]: 42 ng·h/mL
- Tmax [2, 5]: 5 min
- half-life [2, 5]: 6 min
- AUC(0-inf) [2, 6]: 439 ng·h/mL
- Tmax [2, 6]: 15 min
- half-life [2, 6]: 48 min
- bioavailability ([2]; female, NMRI, mouse): 41.4%
- bioavailability ([2]; female, mouse): 41%
- Cmax ([2]; fexinidazole 25 mg/kg po, female NMRI mice): 500 ng/mL
- concentration at 5 min ([3]; female, NMRI, mouse, brain homogenate, intravenous, 1 mg/kg, fexinidazole 1 mg/kg iv, 5 min, read-out: Brain homogenate concentration): 92.5 ng/mL
- concentration at 15 min ([3]; female, NMRI, mouse, brain homogenate, intravenous, 1 mg/kg, fexinidazole 1 mg/kg iv, 15 min, read-out: Brain homogenate concentration): 21.3 ng/mL
- concentration at 30 min ([3]; female, NMRI, mouse, brain homogenate, intravenous, 1 mg/kg, fexinidazole 1 mg/kg iv, 30 min, read-out: Brain homogenate concentration): 12.1 ng/mL
- concentration at 15 min ([3]; female, NMRI, mouse, brain homogenate, oral, 25 mg/kg, fexinidazole 25 mg/kg po, 15 min, read-out: Brain homogenate concentration): 379 ng/mL
- concentration at 60 min ([3]; female, NMRI, mouse, brain homogenate, oral, 25 mg/kg, fexinidazole 25 mg/kg po, 60 min, read-out: Brain homogenate concentration): 254 ng/mL
- concentration at 5 min ([3]; female, NMRI, mouse, brain, intravenous, 1 mg/kg, fexinidazole 1 mg/kg iv, 5 min, read-out: Brain concentration): 277 ng/g
- concentration at 15 min ([3]; female, NMRI, mouse, brain, intravenous, 1 mg/kg, fexinidazole 1 mg/kg iv, 15 min, read-out: Brain concentration): 63.8 ng/g
- concentration at 30 min ([3]; female, NMRI, mouse, brain, intravenous, 1 mg/kg, fexinidazole 1 mg/kg iv, 30 min, read-out: Brain concentration): 36.2 ng/g
- concentration at 15 min ([3]; female, NMRI, mouse, brain, oral, 25 mg/kg, fexinidazole 25 mg/kg po, 15 min, read-out: Brain concentration): 1140 ng/g
- concentration at 30 min ([3]; female, NMRI, mouse, brain, oral, 25 mg/kg, fexinidazole 25 mg/kg po, 30 min, read-out: Brain concentration): 800 ng/g
- concentration at 30 min ([3]; female, NMRI, mouse, brain, oral, 25 mg/kg, fexinidazole 25 mg/kg po, 30 min, read-out: Brain homogenate concentration): 266 ng/mL
- concentration at 60 min ([3]; female, NMRI, mouse, brain, oral, 25 mg/kg, fexinidazole 25 mg/kg po, 60 min, read-out: Brain concentration): 763 ng/g
- Kp at 5 min ([3]; female, NMRI, mouse, brain, iv 1 mg/kg, 5 min, read-out: Mean plasma:brain ratio (plasma = 1.00)): 0.56
- Kp at 15 min ([3]; female, NMRI, mouse, brain, iv 1 mg/kg, 15 min, read-out: Mean plasma:brain ratio (plasma = 1.00)): 0.76
- Kp at 30 min ([3]; female, NMRI, mouse, brain, iv 1 mg/kg, 30 min, read-out: Mean plasma:brain ratio (plasma = 1.00)): 1.03
- Kp at 15 min ([3]; female, NMRI, mouse, brain, po 25 mg/kg, 15 min, read-out: Mean plasma:brain ratio (plasma = 1.00)): 0.76
- Kp at 30 min ([3]; female, NMRI, mouse, brain, po 25 mg/kg, 30 min, read-out: Mean plasma:brain ratio (plasma = 1.00)): 1.16
- Kp at 60 min ([3]; female, NMRI, mouse, brain, po 25 mg/kg, 60 min, read-out: Mean plasma:brain ratio (plasma = 1.00)): 1.22
- Brain concentration ([3]; fexinidazole 25 mg/kg po, 15 min): 1136 ± 54.1 ng/g
- Brain concentration ([3]; fexinidazole 25 mg/kg po, 30 min): 800 ± 92.6 ng/g
- Brain concentration ([3]; fexinidazole 25 mg/kg po, 60 min): 763 ± 90.7 ng/g
- AUC(0-t) [4]: 1530 ± 348 ng·h/mL
- Cmax [4]: 457 ± 179 ng/mL
- Tmax [4]: 50 ± 17.3 min
- half-life [4]: 166 ± 75.6 min
